Results reported in US6165441A, “Method of diagnosis and photodynamic therapy of tumours” (Nycomed Amersham Sorin SRL, priority 1995, dated 2000).

Tests used:
[1] = Clearance of ^131 I--ZnPc from serum; format: in vivo, Balb/c mice
Experimental: (§1) Balb/c mice bearing the MS-2 fibrosarcoma were injected in the tail vein with ^131 I--ZnPc at does between 0.024 and 0.096 MBq/g. At predetermined times up to 24 hours after injection, the whole body of the mice was scanned with a Gamma Camera General Electric Stargem in order to ensure the radioactivity levels at different anatomical sites. Then, the mice were sacrificed by prolonged exposure to ether vapours; the blood, tumour and selected normal tissues (muscle, skin, lung, liver, spleen, kidney, brain) were rapidly taken. The blood was centrifuged to remove the erythrocytes and the radioactivity in the plasma (100 μl) was analyzed. Moreover, tissues were washed with physiological solution, weighed, introduced into RIA test tubes and centrifuged for 10 minutes and 2000 g. The radioactivity was collected for 1 minute by a gamma counter (Packard Selektronik Design). A different group of mice was injected as above described, sacrificed at 3 hours, 15 hours, 24 hours, 48 hours and 96 hours after injection (three mice at each time) and the radioactivity in plasma and tissues homogenates was determined.

[2] = Biodistribution of ^131 I radioactivity in excised tissues after i.v. injection (pharmacokinetic studies, gamma counter); format: in vivo, Balb/c mice; details: for Recovery from BRAIN / Recovery from KIDNEY / Recovery from LIVER / Recovery from LUNG / Recovery from MUSCLE / Recovery from SPLEEN: 0.096 MBq/g in DPPC liposomes, average of three mice ± s.d.
Experimental: (§2) Experimental tests were carried out in Balb/c mice affected by a MS-2 fibrosarcoma. This tumour model had been previously used for extensive PDT studies with unlabelled ZnPc.
(§3) For tumour implantation 2×10^5 cells in 0.2 ml of sterile physiological solution were intramuscularly injected into the right hind leg of female Balb/c mice having a body wt. of 20-22 g. All the experiments were started on the eighth day after tumour implantation, when the external diameter was ca. 0.8 cm and no detectable spontaneous tumour necrosis had generally occurred. When necessary, mice were anesthetized by i.p. injection of Ketalar (150 mg/kg).
^131 I--Zn(II)-phthalocyanine was incorporated into small unilamellar vesicles of DPPC following the procedure described by Valduga et al., J.Inorg.Biochem. (1987), 25-59.
as §1

MS-2 fibrosarcoma = assay: Tumour accumulation and tumour/muscle radioactivity ratio; format: in vivo, Balb/c mice; details: for Recovery from TUMOUR: average of three mice ± s.d.; for Kinetics of tumour uptake and clearance, ^131 I--ZnPc versus ZnPc: mouse, in vivo
Experimental: as §2, §3, §1
FIG. 2 is an histogram showing the ratio between the tumour/muscle radioactivity of ^131 I--ZnPc at different times after injection of 0.096 MBq/g ^131 I--ZnPc in DPPC liposomes; averaged ratios for three independently analyzed mice±s.d..
FIG. 3 is an histogram showing the ratio between the tumour/muscle radioactivity of ^131 I--ZnPc at different concentrations at 24 hours after injection of ^131 I--ZnPc in DPPC liposomes; averaged ratio for three independently analyzed mice±s.d..

[3] = In vivo whole body Gamma Camera scanning of radioactivity distribution; set-up: species or system Balb/c mice
Experimental: as §1

tumour = details: cited from earlier work
[4] = i.v. 0.096 MBq/g in DPPC liposomes

## ^131 I--Zn(II)-phthalocyanine [^131 I--ZnPc]
[1]; [4]
  Clearance rate from serum: particularly fast during the initial 15 hours after administration
[1]; i.v. 0.096 MBq/g in DPPC liposomes, within 96 hours
  Elimination from mouse serum: almost completely eliminated from mouse serum within 96 hours
[1]; mouse, in vivo
  Clearance profile from the serum: apparently polyphasic clearance from the serum
[1]; within the initial 24 hours post-injection, almost
  Initial radioactivity disappearing from serum: ~80%
[2]; 3 h
  Recovery from BRAIN: 11.7 ± 0.1 CPM/mg of tissue
  Recovery from KIDNEY: 156.9 ± 9.7 CPM/mg of tissue
  Recovery from LIVER: 984.2 ± 15.7 CPM/mg of tissue
  Recovery from LUNG: 168.3 ± 5.6 CPM/mg of tissue
  Recovery from MUSCLE: 41.1 ± 3.6 CPM/mg of tissue
  Recovery from SPLEEN: 600.9 ± 8.1 CPM/mg of tissue
[2]; 15 h
  Recovery from BRAIN: 5.2 ± 1.5 CPM/mg of tissue
  Recovery from KIDNEY: 84.4 ± 8.4 CPM/mg of tissue
  Recovery from LIVER: 871.1 ± 146.8 CPM/mg of tissue
  Recovery from LUNG: 76.2 ± 31.4 CPM/mg of tissue
  Recovery from MUSCLE: 22.4 ± 9.3 CPM/mg of tissue
  Recovery from SPLEEN: 503.7 ± 46.8 CPM/mg of tissue
[2]; 24 h
  Recovery from BRAIN: 4.3 ± 0.6 CPM/mg of tissue
  Recovery from KIDNEY: 77.3 ± 11.2 CPM/mg of tissue
  Recovery from LIVER: 1043.7 ± 72.5 CPM/mg of tissue
  Recovery from LUNG: 83.3 ± 12.4 CPM/mg of tissue
  Recovery from MUSCLE: 23.7 ± 2.0 CPM/mg of tissue
  Recovery from SPLEEN: 635.1 ± 65.8 CPM/mg of tissue
[2]; 48 h
  Recovery from BRAIN: 3.4 CPM/mg of tissue
  Recovery from KIDNEY: 59.4 CPM/mg of tissue
  Recovery from LIVER: 849.1 ± 90.3 CPM/mg of tissue
  Recovery from LUNG: 73.4 CPM/mg of tissue
  Recovery from MUSCLE: 22.3 CPM/mg of tissue
  Recovery from SPLEEN: 549.7 CPM/mg of tissue
[2]; 96 h
  Recovery from BRAIN: 2.0 ± 0.4 CPM/mg of tissue
  Recovery from KIDNEY: 61.6 ± 16.8 CPM/mg of tissue
  Recovery from LIVER: 831.9 ± 52.5 CPM/mg of tissue
  Recovery from LUNG: 52.1 ± 6.9 CPM/mg of tissue
  Recovery from MUSCLE: 15.8 ± 2.5 CPM/mg of tissue
  Recovery from SPLEEN: 413.0 ± 42.7 CPM/mg of tissue
[2]; at all times
  Amounts recovered from muscle: small amounts of phthalocyanine are recovered from muscle at all times
[2]; during the initial four days
  Elimination from liver and spleen: relatively slow elimination at least during the initial four days
[2]; i.v. in DPPC liposomes
  Amounts recovered from brain: minimal amounts
  Levels in kidneys: comparatively low levels observed in kidneys
  Recovery in the liver and spleen: very high in the liver and spleen
[2]; inferred from minimal brain recovery
  Toxic effects on the central nervous system: unlikely
[2]; main elimination via bile-gut pathway
  Amount cleared via the kidneys: only minor amounts cleared via the kidneys
[2]; mouse, in vivo
  Amount accumulated by liver and spleen: large amount accumulated by liver and spleen
[2]; short post-injection times
  Accumulation in the liver compared with ZnPc: greater accumulation
  Liver concentration relative to tumour: ca. 7 fold
MS-2 fibrosarcoma; 0.096 MBq/g in DPPC liposomes, FIG. 2
  Time of maximum tumour-to-muscle concentration ratio: 15 h
MS-2 fibrosarcoma; 0.096 MBq/g in DPPC liposomes, after 15 hours, FIG. 2
  Tumour-to-muscle concentration ratio over the studied time interval: remains at an essentially constant level throughout the studied time interval
MS-2 fibrosarcoma; 3 h, 0.096 MBq/g in DPPC liposomes
  Recovery from TUMOUR: 140.3 ± 38.6 CPM/mg of tissue
MS-2 fibrosarcoma; 15 h, 0.096 MBq/g in DPPC liposomes
  Recovery from TUMOUR: 182.7 ± 16.0 CPM/mg of tissue
MS-2 fibrosarcoma; 24 h, 0.096 MBq/g in DPPC liposomes
  Recovery from TUMOUR: 212.9 ± 8.6 CPM/mg of tissue
MS-2 fibrosarcoma; 24 hours after administration, 0.024 to 0.096 MBq/g, FIG. 3
  Effect of injected dose on tumour/muscle ratio: affected to a minor extent by the injected dose
MS-2 fibrosarcoma; 48 h, 0.096 MBq/g in DPPC liposomes
  Recovery from TUMOUR: 180.7 CPM/mg of tissue
MS-2 fibrosarcoma; 96 h, 0.096 MBq/g in DPPC liposomes
  Recovery from TUMOUR: 162.2 ± 19.5 CPM/mg of tissue
MS-2 fibrosarcoma; ^131 I label
  Tumour localization: efficient and selective tumour localizer
MS-2 fibrosarcoma; after ca.
  Time of maximal tumour concentration: ca. 24 hours
MS-2 fibrosarcoma; compared with several normal tissues
  Rate of uptake by the tumour: relatively low rate of uptake by the tumour as compared with several normal tissues
MS-2 fibrosarcoma; [4]
  Time of maximum accumulation in tumour: 24 h
MS-2 fibrosarcoma
  Kinetics of tumour uptake and clearance, ^131 I--ZnPc versus ZnPc: quite similar
MS-2 fibrosarcoma; tumour/muscle ratios of phthalocyanine recovery
  Selectivity of tumour targeting (tumour/muscle ratio) compared with ZnPc: almost twice higher selectivity of tumour targeting
[3]; at all examined time intervals
  Localization of radioactivity in the whole animal: strictly localized at the level of liver and tumour with no general delocalization throughout the organism
[3]; inferred from whole-animal distribution
  Dissociation of ^131 I from the phthalocyanine in vivo: unlikely that ^131 I is dissociated from the phthalocyanine to any significant extent

## [Zn+2].c1ccc2c(c1)-c1nc-2nc2[n-]c(nc3nc([n-]c4nc(n1)-c1ccccc1-4)-c1ccccc1-3)c1ccccc21 [ZnPc, Zn(II)-phthalocyanine]
MS-2 fibrosarcoma
  Kinetics of tumour uptake and clearance, ^131 I--ZnPc versus ZnPc: quite similar
tumour; in vivo
  Selectivity of tumour accumulation: enhanced selectivity of tumour accumulation
tumour; liposome-incorporated, doses as low as
  Lowest phototherapeutically active dose: 0.15 mg/kg body wt.
